Consider four compounds from patent publication EP4763839A1 (Pamplona Therapeutics (Shenzhen) Co., Ltd., priority 2023, dated 2025).

Series [1] in a line: Pharmacokinetic detection in rats after intravenous injection and oral administration. Type of series: in vivo, Sprague-Dawley (SD) rats. The following applies: rat; for AUC / Cmax / half-life: in vivo, oral administration. As for the experimental part: Example 4. Pharmacokinetic detection
This study was designed to investigate the pharmacokinetic properties of the compounds in rats following intravenous injection and oral administration.
Experimental protocol: Six healthy male Sprague-Dawley (SD) rats were used for each compound, randomly divided into two groups of three animals each, with body weights ranging from 180-220 g. The rats were fasted overnight (10-14 hours) prior to administration, with free access to water, and food was restored 4 hours after administration. The compounds were formulated in a vehicle consisting of 5% DMSO + 10% solutol + 85% physiological saline (w/v). […] For A170, A177, and A180, the intravenous injection group received a dose of 1 mg/kg with an administration volume of 1 mL/kg, and the oral administration group received a dose of 5 mg/kg with an administration volume of 5 mL/kg. Blank blood samples were collected prior to administration. After administration, 0.2 mL of blood was collected from the jugular vein or other suitable methods at predetermined time points (0.083 h, 0.25 h, 0.5 h, 1 h, 2 h, 4 h, 8 h, 24 h) into EDTA-K2 anticoagulant tubes, and plasma was separated by centrifugation at 6800 g for 6 minutes. After the experiment, the concentration of the compound in plasma was quantitatively detected using liquid chromatography-tandem mass spectrometry (LCMS/MS). Pharmacokinetic parameters were calculated on the basis of the plasma concentration data at different time points using Phoenix WinNonlin version 8.3.5.

The test system of series [2] is IL-6. The series is described as follows: Inhibition of R848-induced IL-6 release in human PBMCs, IL-6 ELISA. It is filed as cell-based. The note with it: PBMC, compound 24 hours, then R848 10 µg/mL 5 hours. As for the experimental part:
Example 3: Detection of inhibition of R848-induced IL-6 release
Cryopreserved human PBMCs (Milestone® Biotechnologies, PB010C-W) were thawed and resuspended in RPMI-1640 medium (Gibco, 22400-105) supplemented with 10% fetal bovine serum (Gibco, 10099-141), 100 U/mL penicillin, and 100 µg/mL streptomycin (Gibco, 15140122). Subsequently, 190 µL of the PBMC suspension was added to each well of 96-well clear cell culture plates (Corning, 3599) to achieve a density of 1×10^5 cells/well. The cell plates were incubated at 37°C in a 5% CO2 incubator for 30 minutes. Then, 5 µL of diluted compound solution was added to the corresponding cell-seeded wells to achieve final concentrations ranging from 0.046 to 3,000 nM. The final concentration of DMSO was 0.1%. After the compound-treated cell plate was incubated at 37°C in a 5% CO2 incubator for 24 hours, 5 µL of R848 (MCE, HY-13740) was added to achieve a final concentration of 10 µg/mL. The cell plates were incubated again at 37°C in a 5% CO2 incubator for 5 hours, then centrifuged at 1,000 rpm for 1 minute. 100 µL of the cell supernatant from each well was transferred to a new 96-well clear cell culture plate for IL-6 concentration testing.
Interleukin-6 (IL-6) ELISA assay
The IL-6 concentration in the supernatant of R848-induced human PBMCs was determined using a Human IL-6 (interleukin-6) ELISA KIT (4Bio, CHE0009-048). IL-6 standard solutions at different concentrations, ranging from 3.9 to 250 pg/mL, were prepared according to the manufacturer's instructions. 100 µL of each concentration of the IL-6 standard solution and the pre-diluted test cell supernatant samples were added separately to anti-IL-6 antibody-coated and blocked clear 96-well plates, followed by incubation at 37°C for 1.5 hours. According to the product instructions, the plates were washed, 100 µL of biotinylated antibody was added, and the plates were incubated at 37°C for 1 hour. The plates were washed, 100 µL of enzyme conjugate working solution was added. The plates were incubated at 37°C for 30 minutes, and then washed. 100 µL of chromogenic substrate was added, and the plates were incubated at 37°C for 10-20 minutes. The reaction was terminated by adding 100 µL of stop solution. After the reaction, the OD value at 450 nm was measured in absorbance mode using an Envision microplate reader (PerkinElmer). A standard curve was plotted using the corrected OD values of the various concentrations of IL-6 standard solutions. The IL-6 concentration in each cell supernatant was then determined on the basis of the corresponding concentration for the corrected OD value of the test sample on the standard curve. […] Subsequently, the IC50 value of the compound was calculated by performing non-linear curve fitting of concentration versus inhibition rate using GraphPad Prism 9.

Series [3] addresses T1, IRAK4 (Homo sapiens, UniProt Q9NWZ3).
T1 sequence (Q9NWZ3 1-460): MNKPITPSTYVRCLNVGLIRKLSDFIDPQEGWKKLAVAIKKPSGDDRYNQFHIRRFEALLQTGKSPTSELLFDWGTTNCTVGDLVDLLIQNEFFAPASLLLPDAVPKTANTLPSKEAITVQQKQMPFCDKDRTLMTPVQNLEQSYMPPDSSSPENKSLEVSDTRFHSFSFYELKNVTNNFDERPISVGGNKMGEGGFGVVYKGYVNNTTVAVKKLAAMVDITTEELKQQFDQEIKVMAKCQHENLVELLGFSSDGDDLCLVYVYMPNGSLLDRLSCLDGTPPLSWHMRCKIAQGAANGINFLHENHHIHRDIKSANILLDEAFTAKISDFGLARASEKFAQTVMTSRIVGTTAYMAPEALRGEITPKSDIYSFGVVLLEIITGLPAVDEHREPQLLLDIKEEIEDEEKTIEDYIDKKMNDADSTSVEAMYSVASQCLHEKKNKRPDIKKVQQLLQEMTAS
Nature of the series: Degradation of IRAK4 in THP1 cells, Western blot. Also noted: Degradation of IRAK4 in THP1 by compound; host or cells: THP-1. The note with it: THP-1 cells, 24 hours of incubation; for DC50: IRAK4 protein by Western blot, read-out: DC50; for Dmax: maximum degradation rate, read-out: Dmax. It is filed as cell-based. In a few lines:
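Degradation rate derived from densitometry of IRAK4 bands versus DMSO-treated controls. Read-out: anti-IRAK4 immunoblot (10% gel, 40 μg total protein per lane, BCA-normalised) of lysates from THP1 cells incubated with compound for 24 h.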

Series [4] deals with T1, IRAK4. The note with it: Phase I clinical studies in hidradenitis suppurativa and atopic dermatitis; cited from earlier work.
The mark [5] stands for this setting: oral 5 mg/kg, intravenous 1 mg/kg.

Where only a bound is given, the exact number is not on record here.

In series [1] (5 mg/kg), `NC(=O)c1nn(-c2ccc(N3CCN(CC4CCN(c5ccc6c(c5)CN(C5CCC(=O)NC5=O)C6=O)CC4(F)F)CC3)cc2)cc1NC(=O)c1cccc(C(F)(F)F)n1` (stereo not shown) [Compound A170] had an AUC of 2160 ng·h/mL, a Cmax of 285 ng/mL and a half-life of 7 h. In addition, in series [1] (setting [5]), the F is 28%. Besides, the IC50 in series [2] is below 10 nM. For the same compound, in series [3], the DC50 is below 100 nM and the Dmax is above 60%.
Turning to `Cn1c(=O)n(C2CCC(=O)NC2=O)c2ccc(N3CCC(CN4CCN(c5ccc(-n6cc(NC(=O)c7cccc(C(F)(F)F)n7)c(C(N)=O)n6)cc5)CC4)CC3)cc21` (stereo not shown) [Compound A177], in series [1] (5 mg/kg), the AUC stood at 1230 ng·h/mL, the concentration peaked (Cmax) at 120 ng/mL and the half-life was 8 h. The compound also gave a F in series [1] (setting [5]) of 8%. Moreover, the IC50 in series [2] was below 10 nM. In addition, in series [3], the DC50 was below 100 nM and the Dmax was above 60%.
Consider `Cn1c(=O)n(C2CCC(=O)NC2=O)c2cccc(N3CCC(CN4CCN(c5ccc(-n6cc(NC(=O)c7cccc(C(F)(F)F)n7)c(C(N)=O)n6)cc5)CC4)CC3)c21` (stereo not shown) [Compound A178], for which, in series [1] (10 mg/kg), the AUC came out at 6560 ng·h/mL, the Cmax is 593 ng/mL and the half-life was 15 h. In series [1] (oral 10 mg/kg, intravenous 2 mg/kg), this compound yielded an F of 30%. This compound also yielded an IC50 in series [2] below 10 nM. For the same compound, in series [3], the DC50 was below 100 nM and the Dmax was above 60%.
Turning to `Cn1c(=O)n(C2CCC(=O)NC2=O)c2cccc(C#CCOC3CCN(C[C@H]4CC[C@H](n5cc(NC(=O)c6cnn7ccc(N8C[C@H]9C[C@@H]8CO9)nc67)c(C(F)F)n5)CC4)CC3)c21` (stereo partly shown) [KT-474], the safety and tolerability result in series [4] was “favorable safety and tolerability”.

In general, AUC refers to concentration integrated over time. A high value points to high exposure. What is called Cmax is the highest concentration seen after dosing. The term half-life denotes the time needed for the level to fall by half in the phase considered. High values mean slow loss, low ones fast loss. As a reminder, the IC50 is the concentration that inhibits the measured activity by half. A word on the DC50: it is the midpoint of the concentration-degradation curve. As usually defined, the Dmax is the largest share of the target that was removed.
